Measured values taken from the supplement of paper PMC10307832.

Columns and labels:
Experiment in all cases: relative viability (nuclei count vs DMSO), 5 days (fraction); higher = more cells survive
[1] = compound: CC(C)C[C@H](NC(=O)[C@H](CCc1ccccc1)NC(=O)CN1CCOCC1)C(=O)N[C@@H](Cc1ccccc1)C(=O)N[C@@H](CC(C)C)C(=O)[C@@]1(C)CO1 [Carfilzomib] + N=C(N)NC(=N)NCCc1ccccc1 [Phenformin] (partner 250 µM)
How it was run: (§1)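 Lung cancer cell lines in 1536-well plates were dosed by pin tool the day after seeding, either with one drug alone or with a fixed anchor-drug dose plus five library-drug doses (not always all listed) in √10 steps. After 5 days, cells were fixed and their nuclei stained in one step (final 0.05% Triton X-100, 1% formaldehyde, 1 ug/ml Hoechst), then counted on 4× images. Relative viability is the nuclei count in treated wells divided by that in vehicle wells. Values are medians of duplicate plates.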

[2] = compound: C[C@@H](Oc1cc(-c2cnn(C3CCNCC3)c2)cnc1N)c1c(Cl)ccc(F)c1Cl [Crizotinib] + Cc1cc(Nc2cc(N3CCN(C)CC3)nc(Sc3ccc(NC(=O)C4CC4)cc3)n2)n[nH]1 [Tozasertib] (partner 0.1 µM)
How it was run: as §1

[3] = compound: O=C(c1cc(Cc2n[nH]c(=O)c3ccccc23)ccc1F)N1CCN(C(=O)C2CC2)CC1 [Olaparib] + CCNC(=O)c1noc(-c2cc(C(C)C)c(O)cc2O)c1-c1ccc(CN2CCOCC2)cc1 [Luminespib] (partner 0.01 µM)
How it was run: as §1

[4] = compound: O=C(c1cc(Cc2n[nH]c(=O)c3ccccc23)ccc1F)N1CCN(C(=O)C2CC2)CC1 [Olaparib] + O=C(CCCCCCC(=O)Nc1ccccc1)NO [Vorinostat] (partner 1 µM)
How it was run: as §1

Row | Cell Line | relative viability ([1]; first compound 0.001 µM) | relative viability ([1]; first compound 0.003162 µM) | relative viability ([1]; first compound 0.01 µM) | relative viability ([1]; first compound 0.03162 µM) | relative viability ([1]; first compound 0.1 µM) | relative viability ([2]; first compound 0.01 µM) | relative viability ([2]; first compound 0.03162 µM) | relative viability ([2]; first compound 0.1 µM) | relative viability ([2]; first compound 0.3162 µM) | relative viability ([2]; first compound 1 µM) | relative viability ([3]; first compound 0.08 µM) | relative viability ([3]; first compound 0.253 µM) | relative viability ([3]; first compound 2.53 µM) | relative viability ([3]; first compound 8 µM) | relative viability ([4]; first compound 0.08 µM) | relative viability ([4]; first compound 0.253 µM) | relative viability ([4]; first compound 2.53 µM) | relative viability ([4]; first compound 8 µM)
1 | LOU-NH91 | 0.724 | 0.806 | 0.543 | 0.215 | 0.221 | 0.674 | 0.69 | 0.751 | 0.606 | 0.677 | 0.341 | 0.36 | 0.346 | 0.332 | 1.17 | 0.904 | 0.939 | 0.983
2 | LU99A | 0.921 | 0.806 | 0.721 | 0.757 | 0.263 | 0.231 | 0.27 | 0.256 | 0.222 | 0.241 | 0.249 | 0.254 | 0.21 | 0.206 | 0.463 | 0.397 | 0.353 | 0.23
3 | LXF-289 | 0.524 | 0.519 | 0.393 | 0.226 | 0.0577 | 0.221 | 0.201 | 0.18 | 0.157 | 0.197 | 0.784 | 0.635 | 0.721 | 0.567 | 0.81 | 0.731 | 0.807 | 0.722
4 | NCI-H23 | 0.772 | 0.684 | 0.762 | 0.36 | 0.134 | 0.414 | 0.36 | 0.307 |  | 0.363 | 0.229 | 0.211 | 0.2 | 0.186 | 0.957 | 0.542 | 0.434 | 0.256
5 | NCI-H322M | 0.77 | 0.84 | 0.827 | 0.494 | 0.306 | 0.482 | 0.515 | 0.48 | 0.49 | 0.459 | 0.98 | 0.821 | 0.906 | 0.527 | 1.01 | 0.854 | 0.942 | 0.831
6 | NCI-H358 | 0.338 | 0.4 | 0.203 | 0.0604 | 0.0694 | 0.0979 | 0.105 | 0.118 | 0.0922 | 0.0946 | 0.324 | 0.253 | 0.24 | 0.206 | 0.697 | 0.613 | 0.634 | 0.551
7 | NCI-H441 | 0.785 | 0.898 | 0.242 | 0.161 | 0.177 | 0.527 | 0.609 | 0.536 |  | 0.837 | 0.38 | 0.314 | 0.318 | 0.281 | 0.808 | 0.696 | 0.673 | 0.607
8 | NCI-H460 | 0.553 | 0.582 | 0.571 | 0.0312 | 0.0172 | 0.368 | 0.441 | 0.474 | 0.248 | 0.455 | 0.0349 | 0.0392 | 0.0354 | 0.034 | 0.778 | 0.58 | 0.378 | 0.0953
9 | NCI-H520 | 0.609 | 0.46 | 0.227 | 0.287 | 0.227 | 0.47 | 0.469 | 0.448 | 0.45 | 0.458 | 0.205 | 0.277 | 0.255 | 0.23 | 0.822 | 0.684 | 0.554 | 0.341
